Measured values published in ChEMBL document CHEMBL3045260, “Synthesis, anti-microbial evaluation, and QSAR studies of 4-amino-3-hydroxy-naphthalene-1-sulfonic acid derivatives” (2012).
≈ marks a conversion by molar mass, not a printed value.

Key:
Format in all cases: functional
Staphylococcus aureus [1] = assay: Antibacterial activity against Staphylococcus aureus MTCC 2901 after 24 hr by tube dilution method
Bacillus subtilis [2] = assay: Ratio of MBC to MIC for Bacillus subtilis MTCC 2063
Aspergillus niger [3] = assay: Antifungal activity against Aspergillus niger MTCC 8189 after 7 days by tube dilution method
Aspergillus niger [4] = assay: Fungicidal activity against Aspergillus niger MTCC 8189
Escherichia coli [5] = assay: Ratio of MBC to MIC for Escherichia coli MTCC 1652
Staphylococcus aureus [6] = assay: Ratio of MBC to MIC for Staphylococcus aureus MTCC 2901
Escherichia coli [7] = assay: Antibacterial activity against Escherichia coli MTCC 1652 after 24 hr by tube dilution method
Candida albicans [8] = assay: Fungicidal activity against Candida albicans MTCC 227
Bacillus subtilis [9] = assay: Antibacterial activity against Bacillus subtilis MTCC 2063 after 24 hr by tube dilution method
Staphylococcus aureus [10] = assay: Bactericidal activity against Staphylococcus aureus MTCC 2901
Escherichia coli [11] = assay: Bactericidal activity against Escherichia coli MTCC 1652
Candida albicans [12] = assay: Ratio of MFC to MIC for Candida albicans MTCC 227
Candida albicans [13] = assay: Antifungal activity against Candida albicans MTCC 227 after 48 hr by tube dilution method
Aspergillus niger [14] = assay: Ratio of MFC to MIC for Aspergillus niger MTCC 8189
Bacillus subtilis [15] = assay: Bactericidal activity against Bacillus subtilis MTCC 2063

Question: `O=S(=O)(O)c1cc(O)c(/N=C/c2cccc(O)c2)c2ccccc12` was tested. Which “-logMIC” value (Staphylococcus aureus [1]) did it give?
Answer: 1.14

Question: And the Ratio (Bacillus subtilis [2])?
Answer: 3

Question: What about the “-logMIC” value (Aspergillus niger [3]) of the same compound?
Answer: 1.44

Question: And the MFC (Aspergillus niger [4])?
Answer: 130 µM (≈ 44.6 µg/mL)

Question: What about the Ratio (Escherichia coli [5]) of the same compound?
Answer: 3

Question: And the Ratio (Staphylococcus aureus [6])?
Answer: 3

Question: What about the “-logMIC” value (Escherichia coli [7]) of the same compound?
Answer: 1.44

Question: And the MFC (Candida albicans [8])?
Answer: > 130 µM

Question: What about the “-logMIC” value (Bacillus subtilis [9]) of the same compound?
Answer: 1.44

Question: What about the MBC (Staphylococcus aureus [10]) of the same compound?
Answer: > 130 µM

Question: What about the MBC (Escherichia coli [11]) of the same compound?
Answer: > 130 µM

Question: What about the Ratio (Candida albicans [12]) of the same compound?
Answer: 3

Question: And the “-logMIC” value (Candida albicans [13])?
Answer: 1.44

Question: And the Ratio (Aspergillus niger [14])?
Answer: 3

Question: What about the MBC (Bacillus subtilis [15]) of the same compound?
Answer: > 130 µM

Question: What does the source list for `OC(Cn1cncn1)(Cn1cncn1)c1ccc(F)cc1F` [FLUCONAZOLE]?
Answer: -logMIC (Aspergillus niger [3]): 2.64; MFC (Aspergillus niger [4]): 40 µM (≈ 12.3 µg/mL); -logMIC (Candida albicans [13]): 2.64

Question: With `CCn1cc(C(=O)O)c(=O)c2cc(F)c(N3CCNCC3)cc21` [NORFLOXACIN] as the compound, how does the “-logMIC” value (Staphylococcus aureus [1]) read?
Answer: 2.61

Question: What about the “-logMIC” value (Escherichia coli [7]) of the same compound?
Answer: 2.61

Question: And the “-logMIC” value (Bacillus subtilis [9])?
Answer: 2.61

Question: What about the MBC (Staphylococcus aureus [10]) of the same compound?
Answer: 19 µM (≈ 6.07 µg/mL)

Question: And the MBC (Escherichia coli [11])?
Answer: 19 µM (≈ 6.07 µg/mL)

Question: What about the MBC (Bacillus subtilis [15]) of the same compound?
Answer: 19 µM (≈ 6.07 µg/mL)

Question: How did the “-logMIC” value (Staphylococcus aureus [1]) turn out when `COc1cc(/C=N/c2c(O)cc(S(=O)(=O)O)c3ccccc23)cc(OC)c1OC` was run?
Answer: 1.22

Question: What about the Ratio (Bacillus subtilis [2]) of the same compound?
Answer: 3

Question: What about the “-logMIC” value (Aspergillus niger [3]) of the same compound?
Answer: 1.52

Question: And the MFC (Aspergillus niger [4])?
Answer: > 150 µM

Question: What about the Ratio (Escherichia coli [5]) of the same compound?
Answer: 3

Question: What about the Ratio (Staphylococcus aureus [6]) of the same compound?
Answer: 3

Question: What about the “-logMIC” value (Escherichia coli [7]) of the same compound?
Answer: 1.52

Question: And the MFC (Candida albicans [8])?
Answer: > 150 µM

Question: And the “-logMIC” value (Bacillus subtilis [9])?
Answer: 1.52

Question: What about the MBC (Staphylococcus aureus [10]) of the same compound?
Answer: > 150 µM

Question: And the MBC (Escherichia coli [11])?
Answer: > 150 µM

Question: What about the Ratio (Candida albicans [12]) of the same compound?
Answer: 3

Question: And the “-logMIC” value (Candida albicans [13])?
Answer: 1.52

Question: And the Ratio (Aspergillus niger [14])?
Answer: 3

Question: And the MBC (Bacillus subtilis [15])?
Answer: > 150 µM

Question: With `COc1ccccc1/C=N/c1c(O)cc(S(=O)(=O)O)c2ccccc12` as the compound, how does the “-logMIC” value (Staphylococcus aureus [1]) read?
Answer: 1.16

Question: What about the Ratio (Bacillus subtilis [2]) of the same compound?
Answer: 3

Question: What about the “-logMIC” value (Aspergillus niger [3]) of the same compound?
Answer: 1.46

Question: And the MFC (Aspergillus niger [4])?
Answer: > 130 µM

Question: And the Ratio (Escherichia coli [5])?
Answer: 3

Question: And the Ratio (Staphylococcus aureus [6])?
Answer: 3

Question: And the “-logMIC” value (Escherichia coli [7])?
Answer: 1.46

Question: And the MFC (Candida albicans [8])?
Answer: > 130 µM

Question: And the “-logMIC” value (Bacillus subtilis [9])?
Answer: 1.46

Question: What about the MBC (Staphylococcus aureus [10]) of the same compound?
Answer: > 130 µM

Question: What about the MBC (Escherichia coli [11]) of the same compound?
Answer: > 130 µM

Question: What about the Ratio (Candida albicans [12]) of the same compound?
Answer: 3

Question: And the “-logMIC” value (Candida albicans [13])?
Answer: 1.46

Question: What about the Ratio (Aspergillus niger [14]) of the same compound?
Answer: 3

Question: What about the MBC (Bacillus subtilis [15]) of the same compound?
Answer: > 130 µM

Question: What does the source list for `O=CCCC/C=N/c1c(O)cc(S(=O)(=O)O)c2ccccc12`?
Answer: -logMIC (Staphylococcus aureus [1]): 1.11; Ratio (Bacillus subtilis [2]): 3; -logMIC (Aspergillus niger [3]): 1.41; MFC (Aspergillus niger [4]): 30 µM (≈ 9.64 µg/mL); Ratio (Escherichia coli [5]): 3; Ratio (Staphylococcus aureus [6]): 3; -logMIC (Escherichia coli [7]): 1.41; MFC (Candida albicans [8]): > 130 µM; -logMIC (Bacillus subtilis [9]): 1.41; MBC (Staphylococcus aureus [10]): > 130 µM; MBC (Escherichia coli [11]): > 130 µM; Ratio (Candida albicans [12]): 3; -logMIC (Candida albicans [13]): 1.41; Ratio (Aspergillus niger [14]): 3; MBC (Bacillus subtilis [15]): > 130 µM

Question: What does the source list for `COc1ccc(/C=N/c2c(O)cc(S(=O)(=O)O)c3ccccc23)cc1`?
Answer: -logMIC (Staphylococcus aureus [1]): 1.16; Ratio (Bacillus subtilis [2]): 3; -logMIC (Aspergillus niger [3]): 1.46; MFC (Aspergillus niger [4]): 130 µM (≈ 46.5 µg/mL); Ratio (Escherichia coli [5]): 3; Ratio (Staphylococcus aureus [6]): 3; -logMIC (Escherichia coli [7]): 1.46; MFC (Candida albicans [8]): > 130 µM; -logMIC (Bacillus subtilis [9]): 1.46; MBC (Staphylococcus aureus [10]): > 130 µM; MBC (Escherichia coli [11]): > 130 µM; Ratio (Candida albicans [12]): 3; -logMIC (Candida albicans [13]): 1.46; Ratio (Aspergillus niger [14]): 3; MBC (Bacillus subtilis [15]): > 130 µM

Question: `O=S(=O)(O)c1cc(O)c(/N=C/c2ccccc2Cl)c2ccccc12` was tested. Which “-logMIC” value (Staphylococcus aureus [1]) did it give?
Answer: 1.16

Question: And the Ratio (Bacillus subtilis [2])?
Answer: 3

Question: What about the “-logMIC” value (Aspergillus niger [3]) of the same compound?
Answer: 1.46

Question: What about the MFC (Aspergillus niger [4]) of the same compound?
Answer: > 140 µM

Question: What about the Ratio (Escherichia coli [5]) of the same compound?
Answer: 3

Question: What about the Ratio (Staphylococcus aureus [6]) of the same compound?
Answer: 3

Question: What about the “-logMIC” value (Escherichia coli [7]) of the same compound?
Answer: 1.46

Question: And the MFC (Candida albicans [8])?
Answer: > 140 µM

Question: What about the “-logMIC” value (Bacillus subtilis [9]) of the same compound?
Answer: 1.46

Question: And the MBC (Staphylococcus aureus [10])?
Answer: > 140 µM

Question: What about the MBC (Escherichia coli [11]) of the same compound?
Answer: > 140 µM

Question: And the Ratio (Candida albicans [12])?
Answer: 3

Question: And the “-logMIC” value (Candida albicans [13])?
Answer: 1.46

Question: What about the Ratio (Aspergillus niger [14]) of the same compound?
Answer: 3

Question: What about the MBC (Bacillus subtilis [15]) of the same compound?
Answer: > 140 µM

Question: `COc1cccc(/C=N/c2c(O)cc(S(=O)(=O)O)c3ccccc23)c1O` was tested. Which “-logMIC” value (Staphylococcus aureus [1]) did it give?
Answer: 1.17

Question: What about the Ratio (Bacillus subtilis [2]) of the same compound?
Answer: 3

Question: And the “-logMIC” value (Aspergillus niger [3])?
Answer: 1.48

Question: What about the MFC (Aspergillus niger [4]) of the same compound?
Answer: > 140 µM

Question: And the Ratio (Escherichia coli [5])?
Answer: 3

Question: What about the Ratio (Staphylococcus aureus [6]) of the same compound?
Answer: 3

Question: What about the “-logMIC” value (Escherichia coli [7]) of the same compound?
Answer: 1.48

Question: And the MFC (Candida albicans [8])?
Answer: > 140 µM

Question: What about the “-logMIC” value (Bacillus subtilis [9]) of the same compound?
Answer: 1.48

Question: And the MBC (Staphylococcus aureus [10])?
Answer: 140 µM (≈ 52.3 µg/mL)

Question: What about the MBC (Escherichia coli [11]) of the same compound?
Answer: > 140 µM

Question: What about the Ratio (Candida albicans [12]) of the same compound?
Answer: 3

Question: What about the “-logMIC” value (Candida albicans [13]) of the same compound?
Answer: 1.48

Question: What about the Ratio (Aspergillus niger [14]) of the same compound?
Answer: 3

Question: And the MBC (Bacillus subtilis [15])?
Answer: > 140 µM

Question: What does the source list for `COc1cccc(/C=N/c2c(O)cc(S(=O)(=O)O)c3ccccc23)c1`?
Answer: -logMIC (Staphylococcus aureus [1]): 1.16; Ratio (Bacillus subtilis [2]): 3; -logMIC (Aspergillus niger [3]): 1.46; MFC (Aspergillus niger [4]): > 120 µM; Ratio (Escherichia coli [5]): 3; Ratio (Staphylococcus aureus [6]): 3; -logMIC (Escherichia coli [7]): 1.46; MFC (Candida albicans [8]): > 120 µM; -logMIC (Bacillus subtilis [9]): 1.46; MBC (Staphylococcus aureus [10]): 120 µM (≈ 42.9 µg/mL); MBC (Escherichia coli [11]): > 120 µM; Ratio (Candida albicans [12]): 3; -logMIC (Candida albicans [13]): 1.46; Ratio (Aspergillus niger [14]): 3; MBC (Bacillus subtilis [15]): > 120 µM
